Values quoted from earlier work in patent US20250340540A1, “Crystal Forms Of HS378 And Preparation Method Therefor” (priority 2022, published 2025).

Tested on: novel coronavirus
Settings: mouse, in vivo; cited from earlier work

In the case of CC(C)(C)[C@H](NC(=O)C(F)(F)F)C(=O)N1C[C@H]2[C@@H]([C@H]1C(=O)N[C@H](C#N)C[C@@H]1CCNC1=O)C2(C)C [HS378, (1R, 2S, 5S)-N-{(1S)-1-cyano-2-[(3S)-2-oxopyrrolidin-3-yl]-ethyl}-6,6-dimethyl-3-[3-methyl-N-(trifluoroacetyl)-L-valyl]-3-azabicyclo [3.1.0]hexane-2-carboxamide], the Oral activity is listed as “Oral activity was demonstrated”.
